Like-named read-outs stand apart in the source and are kept apart here.
What was measured:
Assay type in all cases: cell-based
[1] = system: Respiratory syncytial virus recombinant with luciferase (RSV-Luc5); experiment: microbe, parasite or virus in culture
SARS-CoV-2 = SARS-CoV-2 antiviral assay (A549-hACE2, Nano luciferase); conditions: A549-hACE2 cells, SARS-CoV2-Nano, MOI 0.025, 48 h, Table 4, read-out: EC50 SARS CoV2
[2] = system: Respiratory syncytial virus (RSV) strain A2; experiment: Hep-2 RSV2 384-well assay (EC50-HEP2-384); conditions: HEp-2 cells, RSV A2, MOI=4, 4 days
[3] = system: Recombinant respiratory syncytial virus expressing the firefly luciferase protein (RSV-Fluc); experiment: microbe, parasite or virus in culture; conditions: Table 4
[4] = system: Respiratory syncytial virus (RSV) strain A2; experiment: RSV antiviral assay (HEp-2, 96 well); conditions: read-out: EC50 RSV HEP2 96; HEp-2 cells, RSV A2, MOI=4, 4 days, 96 well; Table 3
[5] = human respiratory syncytial virus, HEp-2, 72 h, read-out: EC50 RSVFluc-Hep2 384, HEp-2 cells, RSV-Luc5, MOI=0.5, 3 days, 384 well, Table 3
[6] = Severe acute respiratory syndrome coronavirus 2, 48 h
[7] = human respiratory syncytial virus, HEp-2, 96 h, Table 3
[8] = human respiratory syncytial virus, NHBE, 72 h, read-out: EC50 RSVFluc NHBE 96, NHBE cells, RSV-Fluc, MOI of 0.1, three days, 96 well
[9] = read-out: EC50 RSVFluc-Hep2 384, HEp-2 cells, RSV-Luc5, MOI=0.5, 3 days, 384 well, Table 3
[10] = read-out: EC50 RSVFluc NHBE 96, NHBE cells, RSV-Fluc, MOI of 0.1, three days, 96 well

CC(C)C(=O)O[C@H]1[C@@H](OC(=O)C(C)C)[C@](C#N)(c2ccc3c(N)ncnn23)O[C@@H]1COP(=O)(N[C@@H](C)C(=O)OC1CC2(CCC2)C1)Oc1ccccc1 (stereo partly drawn) [Example 46, (2R,3R,4R,5R)-2-(4-aminopyrrolo[2,1-f][1,2,4]triazin-7-yl)-2-cyano-5-((((((S)-1-oxo-1-(spiro[3.3]heptan-2-yloxy)propan-2-yl)amino)(phenoxy)phosphoryl)oxy)methyl)tetrahydrofuran-3,4-diyl bis(2-methylpropanoate)]
EC50 [1, 5]: 19.3 nM | EC50 (SARS-CoV-2; [6]): 237 nM | EC50 [2, 7]: 52.3 nM | EC50 [3, 8]: 7.79 nM

CC(=O)O[C@H]1[C@@H](OC(C)=O)[C@](C#N)(c2ccc3c(N)ncnn23)O[C@@H]1COP(=O)(N[C@@H](C)C(=O)OC1CC2(CCC2)C1)Oc1ccccc1 (single isomer, unassigned) [Example 45b]
EC50 [1, 9]: 6.87 nM | EC50 (SARS-CoV-2): 56.9 nM | EC50 ([2]; Table 3): 23.9 nM | EC50 [3, 10]: 10.3 nM

CCC(CC)COC(=O)[C@H](C)NP(=O)(OC[C@H]1O[C@@](C#N)(c2ccc3c(N)ncnn23)[C@H](O)[C@@H]1O)Oc1ccc(C(C)(C)C)cc1 (single isomer, unassigned) [Example 13b]
EC50 ([1]; read-out: EC50 RSVFluc-Hep2 384, HEp-2 cells, RSV-Luc5, MOI=0.5, 3 days, 384 well, One-Glo, Table 1): 26.7 nM | EC50 (SARS-CoV-2): 174 nM | EC50 ([2]; Table 1): 33.4 nM | EC50 [3, 10]: 6.86 nM

CC(=O)O[C@H]1[C@@H](OC(C)=O)[C@](C#N)(c2ccc3c(N)ncnn23)O[C@@H]1COP(=O)(N[C@@H](C)C(=O)OC1CC2(CCC2)C1)Oc1ccccc1 (stereo partly drawn) [Example 45, (2R,3R,4R,5R)-2-(4-aminopyrrolo[2,1-f][1,2,4]triazin-7-yl)-2-cyano-5-((((((S)-1-oxo-1-(spiro[3.3]heptan-2-yloxy)propan-2-yl)amino)(phenoxy)phosphoryl)oxy)methyl)tetrahydrofuran-3,4-diyl Diacetate]
EC50 [1, 5]: 19 nM | EC50 (SARS-CoV-2; [6]): 105 nM | EC50 [2, 7]: 31.1 nM | EC50 [3, 8]: 5.29 nM

CCC(CC)COC(=O)[C@H](C)NP(=O)(OC[C@H]1O[C@@](C#N)(c2ccc3c(N)ncnn23)[C@H](OC(C)=O)[C@@H]1OC(C)=O)Oc1cccc2ccccc12 (single isomer, unassigned) [Example 78b]
EC50 [1, 5]: 33.8 nM | EC50 (SARS-CoV-2): 20 nM | EC50 [4]: 21 nM | EC50 [2, 7]: 75.6 nM | EC50 [3, 8]: 5.67 nM

C[C@H](NP(=O)(OC[C@H]1O[C@@](C#N)(c2ccc3c(N)ncnn23)[C@H](O)[C@@H]1O)Oc1ccccc1)C(=O)OC1CC2(CCC2)C1 (stereo partly drawn) [Example 44, spiro[3.3]heptan-2-yl ((((2R,3S,4R,5R)-5-(4-aminopyrrolo[2,1-f][1,2,4]triazin-7-yl)-5-cyano-3,4-dihydroxytetrahydrofuran-2-yl)methoxy)(phenoxy)phosphoryl)-L-alaninate]
EC50 [1, 5]: 18.3 nM | EC50 (SARS-CoV-2; [6]): 104 nM | EC50 [2, 7]: 56 nM | EC50 [3, 8]: 9.47 nM

CC(=O)O[C@H]1[C@@H](OC(C)=O)[C@](C#N)(c2ccc3c(N)ncnn23)O[C@@H]1COP(=O)(N[C@@H](C)C(=O)OC1CC2(CCC2)C1)Oc1cccc2ccccc12 (single isomer, unassigned) [Example 83b]
EC50 [1, 9]: 20.4 nM | EC50 (SARS-CoV-2): 32.8 nM | EC50 [4]: 7.32 nM | EC50 [2, 7]: 27.9 nM | EC50 [3, 10]: 7.12 nM

CC(=O)O[C@H]1[C@@H](OC(C)=O)[C@](C#N)(c2ccc3c(N)ncnn23)O[C@@H]1COP(=O)(N[C@@H](C)C(=O)OC1CC(C)(C)C1)Oc1ccc(C(C)(C)C)cc1 (single isomer, unassigned) [Example 96a]
EC50 [1, 5]: 21.2 nM | EC50 (SARS-CoV-2; [6]): 198 nM | EC50 [2, 7]: 26.5 nM | EC50 [3, 10]: 8.53 nM
